What was measured:
[1] = Enamel solubility reduction (FDA ESR model #33 modified), phosphoric acid challenge
From the text: (§1) FDA caries monograph enamel solubility reduction (ESR) model #33 is designed to evaluate in vitro the utility of fluoride toothpastes to protect enamel against a bacterial (lactic) acid challenge. In brief, enamel specimens are placed in a lactic acid challenge (pH 4.5) and the solubility determined by spectrophotometric analysis of released phosphate. Specimens are then placed in the relevant treatment solution derived from the supernatant of a 1:3 slurry of the toothpaste in deionised water. After 5 minutes the specimens are removed, rinsed, and placed in a fresh lactic acid challenge. The enamel solubility is determined once again, and the ESR value calculated as a percentage reduction relative to the baseline solubility.
FDA ESR Model #33 was modified by replacing lactic acid with phosphoric acid, a dietary acid most commonly associated with cola drinks. Determination of enamel solubility in this study was based on analysis of the released calcium to prevent interference from the acid challenge.

[2] = Enamel solubility reduction (FDA ESR model #33 modified), citric acid challenge; settings: for Enamel Solubility Reduction (%): 1.0% w/w citric acid monohydrate pH 3.75, alkyl phosphates 0.50% w/w aqueous, pH 7, normalised to water negative control
From the text: as §1
The methodology described above was modified in order to evaluate the ability of putative anti-erosion actives to confer protection against a more aggressive dietary acid challenge. […] The alkyl phosphates were tested as 0.50% w/w aqueous solutions at pH 7. Fluoride was included as a positive control, and Crest Cavity Protection was also run as an additional control standard.

[3] = Inhibition of citric acid-mediated enamel surface softening (Vickers microhardness/microindentation); parameters: species or system human; settings: Example 1; for enamel surface microhardness (baseline = 100): ± = standard deviation; for levels of protection compared among SDP, PDEP and fluoride positive control: at 10 and 20 minutes; for levels of protection compared among SDP, PDEP and fluoride positive control / protection versus the fluoride positive control: in words; for protection versus the fluoride positive control: at 30 minutes
Procedure: The first stage of dental erosion and acid wear involves demineralisation of the hard tissue surface and consequent surface softening. The present study employed a Duramin Microhardness Tester to assess the protective effect of SDP and PDEP against an erosive challenge based on citric acid.
Sound human enamel specimens were polished with 2400 grit abrasive and subsequently immersed in an aqueous solution of the specified treatment at pH 7 for 2 minutes under ambient conditions, with agitation. After rinsing with deionised water, the enamel specimens were exposed to an erosive challenge comprising an aqueous solution of 0.30% w/w citric acid monohydrate, pH 3.6. The extent of acid damage was assessed by monitoring the decrease in enamel surface hardness as a function of acid exposure time. The microhardness value for each specimen at a given time point was based on the mean of 6 indents. Each treatment leg employed 3 enamel specimens, which were randomised according to baseline microhardness. A 300 ppm fluoride ion solution (from NaF) was employed as the positive control; deionised water was employed as the negative control. The protective effects of combination treatment solutions i.e. 0.50% alkyl phosphate plus 300 ppm fluoride, were also investigated.
The actives were tested as aqueous solutions at 0.50% w/w and pH 7.

[4] = 10 mins acid (0.30% w/w citric acid monohydrate, pH 3.6) after 2 min treatment at pH 7
[5] = 20 mins acid (0.30% w/w citric acid monohydrate, pH 3.6) after 2 min treatment at pH 7
[6] = 30 mins acid (0.30% w/w citric acid monohydrate, pH 3.6) after 2 min treatment at pH 7

CCCCCCCCCCCCOP(=O)([O-])[O-].[Na+].[Na+] [SDP, sodium dodecyl phosphate]
protection against the phosphoric acid challenge compared to the negative water control ([1]; in words): statistically significant protection | acid protection versus the 300 ppm fluoride ([1]; phosphoric acid ESR, in words): statistically superior | Enamel Solubility Reduction (%) ([1]; phosphoric acid challenge, solubility from released calcium): 16.02% | Enamel Solubility Reduction (%) [2]: 36.76% | directional comparison with fluoride ([2]; citric acid ESR, in words): directionally superior | statistical comparison with the 300 ppm fluoride control ([2]; citric acid ESR, in words): not statistically different | enamel surface microhardness (baseline = 100) [3, 4]: 94 ± 1.7 | enamel surface microhardness (baseline = 100) [3, 5]: 84 ± 4.0 | enamel surface microhardness (baseline = 100) [3, 6]: 80 ± 2.0 | levels of protection compared among SDP, PDEP and fluoride positive control [3]: comparable | protection versus the fluoride positive control [3]: statistically superior

potassium dodecyl ether (1EO) phosphate [PDEP]
Enamel Solubility Reduction (%) [2]: 17.77% | statistical comparison with the 300 ppm fluoride control ([2]; citric acid ESR, in words): statistically inferior | enamel surface microhardness (baseline = 100) [3, 4]: 92.5 ± 1.8 | enamel surface microhardness (baseline = 100) [3, 5]: 82.5 ± 2.7 | enamel surface microhardness (baseline = 100) [3, 6]: 78 ± 2.8 | levels of protection compared among SDP, PDEP and fluoride positive control [3]: comparable | protection versus the fluoride positive control [3]: statistically superior
